Measured values reported in PMC12073189, “Synthesis and Evaluation of a Novel Zuranolone Analog with High GABAA Receptor PAM Activity and Excellent Pharmacokinetic Profiles” (Molecules, 2025).
Like-named read-outs stand apart in the source and are kept apart here.

Key:
[1] = test system: loss of righting reflex; assay: Loss of righting reflex (LORR) test; format: in vivo, rat; details: rats; for LORR threshold dose: intragastric
Experimental: We randomly assigned rats into 6 groups (n = 10): Zuranolone groups at doses of 9.8, 15.6, and 19.5 μmol/kg and S9 groups at doses of 38.9, 48.6, and 58.3 μmol/kg. The number of animals showing LORR, defined as the inability to turn over within 30 s while in the supine position, was recorded within 4 h following intragastric administration of the test drugs or vehicle.

[2] = biological target: T1, CYP1A2 (Homo sapiens, UniProt P05177); assay: Human liver CYP inhibition assay (cocktail, pooled HLM); format: in vitro ADME
T1 construct: tissue XenoTech; host or cells: pooled human liver microsomes
T1 sequence (P05177 1-516): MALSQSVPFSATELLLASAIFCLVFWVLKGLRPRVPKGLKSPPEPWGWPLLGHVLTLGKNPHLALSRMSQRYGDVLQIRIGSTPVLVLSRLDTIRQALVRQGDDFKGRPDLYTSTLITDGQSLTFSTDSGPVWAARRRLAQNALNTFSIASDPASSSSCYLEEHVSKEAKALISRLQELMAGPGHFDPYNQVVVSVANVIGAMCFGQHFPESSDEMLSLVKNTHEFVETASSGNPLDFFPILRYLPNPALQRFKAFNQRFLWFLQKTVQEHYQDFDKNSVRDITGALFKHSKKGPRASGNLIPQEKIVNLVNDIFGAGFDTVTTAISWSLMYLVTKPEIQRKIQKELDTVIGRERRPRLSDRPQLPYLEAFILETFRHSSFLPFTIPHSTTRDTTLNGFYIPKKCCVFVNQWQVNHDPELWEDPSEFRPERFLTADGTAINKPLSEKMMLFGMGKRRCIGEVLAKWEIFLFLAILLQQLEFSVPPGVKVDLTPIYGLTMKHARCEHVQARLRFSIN
Experimental: The main materials used in this experiment were sourced as follows: Zuranolone from BEIWANTABIO Co., Ltd. (Shanghai, China); liver microsomes (rat and human) and CYP isoenzymes (CYP1A2, CYP2C8, CYP2D6, CYP3A4) from XenoTech (Tewksbury, MA, USA); LTK cells from the China Center for Type Culture Collection (CCTCC, Wuhan, China); and CHO cells from the National Certified Cell Bank (Shanghai, China).
The IC50 values of S9 and Zuranolone on CYP isoenzymes (1A2, 2C8, 2D6, 3A4) were determined in pooled HLM using a cocktail approach, as previously reported.

[3] = Plasma pharmacokinetic study in rats; format: in vivo, rat; details: for AUC(0-t) / C0 / half-life / Cmax / Tmax: rat plasma, n = 6; for bioavailability / Tmax: rat, plasma; for bioavailability: oral, 24.4 μmol/kg, i.g. 24.4 vs i.v. 6.1 μmol/kg, read-out: F (oral absolute bioavailability)
Experimental: We quantified S1–S15 and Zuranolone using a UPLC-MS/MS (Agilent 1290 Infinity II UHPLC (Agilent Technologies, Santa Clara, CA, USA) coupled with a QTRAP 5500 MS/MS (ESI source) (SCIEX, Redwood City, CA, USA for MS/MS). The method assessed the content level of S9 and Zuranolone in microsome metabolism and in rat brain tissue and plasma. An ACQUITY UPLC Peptide BEH C18 column (Waters; 50 × 2.1 mm, 1.7 μm; 60 °C; Waters Corporation, Milford, MA, USA) was used with a mobile phase of 0.02% propionic acid in water (A) and acetonitrile (B). The gradient elution of the mobile phase B is carried out as follows: it is 10% from 0 to 0.5 min, 90% from 0.8 to 2.5 min, and 10% from 2.8 to 3.5 min, with a flow rate of 0.40 mL/min. Quantitative analysis was performed on a QTRAP 5500 MS (SCIEX, Redwood City, CA, USA) in positive ionization mode with MRM (multiple reaction monitoring), using progesterone-d9 as the internal standard. MRM transitions and parameters were optimized for each analyte, with collision energies of 25 V (S1–S15), 23 V (Zuranolone), and 30 V (IS), and declustering potentials of 80 V (S1–S15), 90 V (Zuranolone), and 180 V (IS). Other conditions were as follows: curtain gas 10 psi, collision gas ‘medium’, ion spray voltage 5500 V, temperature 500 °C, and ionization source gases 1 and 2 at 50 psi.
Zuranolone was solubilized in 5% DMSO with solutol HS 15 in saline. S9 was solubilized in 10% DMSA with 30% SBECD (Zibo Qianhui Biological Technology Co., Ltd., Zibo, China) in saline. After fasting for 12 h, rats (n = 6 per group) were administered Zuranolone and S9 intragastrically (i.g.) at a dose of 24.4 μmol/kg, and intravenously (i.v.) at 6.1 μmol/kg. Blood samples (200 μL) were collected into 1.5 mL tubes containing heparin at 15 min, 30 min, 1, 2, 3, 4, 6, 8, 12, 24, 48, and 96 h after i.g. or at 5, 15, 30 min, and 1, 2, 3, 4, 6, 8, 12, 24, 48, 96 h after i.v. Plasma was separated by centrifugation for 5 min (8000 rpm, 4 °C) and stored at −80 °C immediately.
Experimental data were analyzed by GraphPad Prism software 9.0 and presented as means ± SD. Statistical differences were determined by one-way ANOVA followed by Dunnett’s post-hoc test, with p < 0.05 considered statistically significant. Main pharmacokinetic parameters were calculated using Phoenix WinNonlin 8.1 (non-compartmental model), and the absolute bioavailability of S9 was determined by the following formula: (AUC i.g. (0–t) × dose i.v.)/(AUC i.v. (0–t) × dose i.g.) × 100%.

[4] = iv, 6.1 umol/kg, i.v. 6.1 μmol/kg
[5] = po, 24.4 umol/kg, i.g. 24.4 μmol/kg

Compound	LORR threshold dose [1] [µmol/kg]	AUC(0-t) [3, 4] [µM·h]	C0 [3, 4] [µM]	half-life [3, 4] [h]	AUC(0-t) [3, 5] [µM·h]	Cmax [3, 5] [µM]	half-life [3, 5] [h]	bioavailability ([3]; rats) [%]	Tmax [3, 5] [h]	other results
C[C@@]1(O)CC[C@H]2[C@H](CC[C@@H]3[C@@H]2CC[C@]2(C)[C@@H](C(=O)Cn4cnn(-c5ccnc(OCC(F)(F)F)c5)c4=O)CC[C@@H]32)C1 [S9]	38.9	24.2	2.86 ± 0.223	16.4 ± 0.56	80.4	3.6 ± 0.541	19.8 ± 1.5	82.9	~3.7	Latency to LORR ([1]; i.g. 48.6 μmol/kg): 68 min; Latency to LORR ([1]; i.g. 58.3 μmol/kg): 59 min; IC50 ([2]; human liver CYP isoenzymes, pooled HLM, read-out: CYP IC50: 1A2): > 30 µM; increase in AUC compared to S28 ([3]; S28 previously reported ref 25): over 2 fold; increase in T1/2 compared to S28 ([3]; S28 previously reported ref 25): over 2 fold; AUC0–t as fold of Zuranolone ([3]; rats, i.g. 24.4 μmol/kg): approximately 6.7 fold; T1/2 as fold of Zuranolone ([3]; rats, i.g. 24.4 μmol/kg): approximately 5.2 fold; AUC0–t as fold of Zuranolone ([3]; rats, i.v. 6.1 μmol/kg): approximately 4.7 fold; T1/2 as fold of Zuranolone ([3]; rats, i.v. 6.1 μmol/kg): approximately 6.6 fold; AUC higher than Zuranolone ([3]; rats, route not given): 6 fold; plasma T1/2 longer than Zuranolone ([3]; rats, route not given): 5 fold
C[C@@]1(O)CC[C@H]2[C@H](CC[C@@H]3[C@@H]2CC[C@]2(C)[C@@H](C(=O)Cn4cc(C#N)cn4)CC[C@@H]32)C1 [Zuranolone]	9.8	5.18 ± 1.73	3.43 ± 1.74	2.5 ± 1.3	12	2.28 ± 0.554	3.8 ± 1.7	57.7	~1.2	Latency to LORR ([1]; i.g. 15.6 μmol/kg): 35 min; Latency to LORR ([1]; i.g. 19.5 μmol/kg): 30 min; IC50 [2]: > 30 µM
